Structures are written as SMILES.

For this experiment, the target named is 6×His-CRBN-DDB1 protein (Homo sapiens (Human), UniProt Q96SW2). In words: CRBN Fluorescence Polarization Assay. The format is binding. The settings on record: competitive fluorescence polarization; Cy5-O-Len probe 30 nM, 6×His-CRBN-DDB1 200 nM; 1 hour at room temperature; mean of three independent determinations; read-out: CRBN FP (IC50). How it is done: In this competitive fluorescent polarization assay Cy5 conjugated lenalidomide analog (Cy5-O-Len)^13 was used as a fluorescent probe. 6×His-CRBN-DDB1 protein (200 nM) and Cy5-O-Len probe (30 nM) were combined in 20 mM HEPES pH 7, 150 mM NaCl, 0.005% Tween-20 assay buffer. 20 μL of this assay cocktail was dispensed into wells of Corning 3821 black 384-well plates. Compounds were transferred to the assay plate from a dose-response plate using a Pintool on a Biomek FXP Laboratory Automation Workstation (Beckman Coulter). The plates were incubated in the dark for 1 hour at room temperature and then read on an Envision plate reader (PerkinElmer, Massachusetts, USA). IC50 values were determined using a proprietary software RISE (Robust Investigation of Screening Experiments), developed in house on the Pipeline Pilot platform (Biovia, v. 17.2.0). Data represent the mean of three independent determinations.
6×His-CRBN-DDB1 protein, sequence (Q96SW2 whole entry): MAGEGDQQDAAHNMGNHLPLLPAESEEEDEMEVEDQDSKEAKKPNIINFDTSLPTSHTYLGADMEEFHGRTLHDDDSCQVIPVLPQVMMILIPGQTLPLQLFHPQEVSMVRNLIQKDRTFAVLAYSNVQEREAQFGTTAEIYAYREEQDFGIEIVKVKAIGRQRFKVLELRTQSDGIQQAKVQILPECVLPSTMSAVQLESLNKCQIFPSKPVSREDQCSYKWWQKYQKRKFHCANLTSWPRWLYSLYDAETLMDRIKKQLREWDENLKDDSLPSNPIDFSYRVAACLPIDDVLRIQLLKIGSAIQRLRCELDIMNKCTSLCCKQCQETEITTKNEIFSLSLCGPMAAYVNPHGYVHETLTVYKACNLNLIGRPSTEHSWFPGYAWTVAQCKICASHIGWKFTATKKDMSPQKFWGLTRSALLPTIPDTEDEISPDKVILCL
6×His-CRBN-DDB1 protein, sequence (Q16531 whole entry partner): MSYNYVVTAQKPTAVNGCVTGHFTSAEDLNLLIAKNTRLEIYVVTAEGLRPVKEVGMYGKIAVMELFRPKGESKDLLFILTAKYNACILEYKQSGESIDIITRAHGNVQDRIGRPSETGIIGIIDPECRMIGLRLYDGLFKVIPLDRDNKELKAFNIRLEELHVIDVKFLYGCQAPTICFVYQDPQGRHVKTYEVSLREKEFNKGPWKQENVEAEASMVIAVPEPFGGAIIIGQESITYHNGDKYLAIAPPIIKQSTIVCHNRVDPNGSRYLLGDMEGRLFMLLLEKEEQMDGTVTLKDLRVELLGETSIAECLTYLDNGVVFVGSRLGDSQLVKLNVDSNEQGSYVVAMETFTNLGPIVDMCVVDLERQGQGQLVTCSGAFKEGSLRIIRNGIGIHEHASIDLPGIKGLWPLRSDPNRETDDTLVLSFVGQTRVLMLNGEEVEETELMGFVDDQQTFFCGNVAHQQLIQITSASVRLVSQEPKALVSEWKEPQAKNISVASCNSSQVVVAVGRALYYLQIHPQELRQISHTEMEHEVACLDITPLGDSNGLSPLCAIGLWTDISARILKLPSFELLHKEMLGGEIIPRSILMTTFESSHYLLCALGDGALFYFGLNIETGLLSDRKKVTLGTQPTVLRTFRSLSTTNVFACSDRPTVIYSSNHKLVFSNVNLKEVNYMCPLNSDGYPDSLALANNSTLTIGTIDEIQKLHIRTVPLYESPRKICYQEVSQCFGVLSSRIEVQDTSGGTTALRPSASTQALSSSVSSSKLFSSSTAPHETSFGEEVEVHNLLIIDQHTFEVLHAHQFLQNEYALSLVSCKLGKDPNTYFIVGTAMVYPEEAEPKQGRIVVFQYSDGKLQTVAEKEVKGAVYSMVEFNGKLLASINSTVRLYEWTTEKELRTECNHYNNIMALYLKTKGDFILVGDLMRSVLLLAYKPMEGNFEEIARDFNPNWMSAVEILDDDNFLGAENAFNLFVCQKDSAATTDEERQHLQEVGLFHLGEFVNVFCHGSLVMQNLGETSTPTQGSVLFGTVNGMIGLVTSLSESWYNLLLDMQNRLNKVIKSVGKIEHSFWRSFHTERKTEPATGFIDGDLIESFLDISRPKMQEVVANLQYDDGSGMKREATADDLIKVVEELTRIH
Cereblon binding activity was determined as described herein above, and the results are provided below in Table 2 for representative disclosed compounds. Compound number (“Cmpd No.”) refers to the compound number (and associated compound information such as structure, name, etc.) as provided in Table 1. In Table 2 below: cereblon binding IC50 values are categorized as follows: “A” represents IC50 value<1 μM, “B” represents IC50 value between 1 and 10 μM, and “C” represents IC50 value>10 μM.
Turning to `O=C1CCC(N2Cc3cc(Nc4noc5cc(F)ccc45)ccc3C2=O)C(=O)N1` (centres unmarked) [Compound 62, 3-(5-((6-fluorobenzo[d]isoxazol-3-yl)amino)-1-oxoisoindolin-2-yl)piperidine-2,6-dione], the half-inhibitory concentration (IC50) was under 1 µM.

Consider `O=C1CCC(N2Cc3cc(NC(=O)c4cccnc4)ccc3C2=O)C(=O)N1` (centres unmarked) [Compound 6, N-(2-(2,6-dioxopiperidin-3-yl)-1-oxoisoindolin-5-yl)nicotinamide], for which the 50% inhibitory concentration (IC50) fell in the range of 1 to 10 µM.

Take `O=C1CCC(N2Cc3cc(NC(=O)c4ccncc4)ccc3C2=O)C(=O)N1` (centres unmarked) [Compound 7, N-(2-(2,6-dioxopiperidin-3-yl)-1-oxoisoindolin-5-yl)isonicotinamide]: the 50% inhibitory concentration (IC50) lay within 1 to 10 µM.

With `CS(=O)(=O)Nc1cccc(C(=O)Nc2ccc3c(c2)CN(C2CCC(=O)NC2=O)C3=O)c1` (centres unmarked) [Compound 47, N-(2-(2,6-dioxopiperidin-3-yl)-1-oxoisoindolin-5-yl)-3-(methylsulfonamido)benzamide], the half-inhibitory concentration (IC50) lay in the range of 1 to 10 µM.

Turning to `CS(=O)(=O)Nc1ccc(C(=O)Nc2ccc3c(c2)CN(C2CCC(=O)NC2=O)C3=O)cc1` (centres unmarked) [Compound 46, N-(2-(2,6-dioxopiperidin-3-yl)-1-oxoisoindolin-5-yl)-4-(methylsulfonamido)benzamide], the half-inhibitory concentration (IC50) was in the range of 1 to 10 µM.

With `O=C1CCC(N2Cc3cc(C(=O)Nc4ccc(F)cc4)ccc3C2=O)C(=O)N1` (centres unmarked) [Compound 16, 2-(2,6-dioxopiperidin-3-yl)-N-(4-fluorophenyl)-1-oxoisoindoline-5-carboxamide], the IC50 is 1 to 10 µM.

On to `CN(C(=O)c1ccccc1)c1ccc2c(c1)CN(C1CCC(=O)NC1=O)C2=O` (centres unmarked) [Compound 18, N-(2-(2,6-dioxopiperidin-3-yl)-1-oxoisoindolin-5-yl)-N-methylbenzamide], for which the IC50 fell in the range of 1 to 10 µM.

Take `CCOc1cc(C)cc(C(=O)Nc2ccc3c(c2)CN(C2CCC(=O)NC2=O)C3=O)c1` (centres unmarked) [Compound 58, N-(2-(2,6-dioxopiperidin-3-yl)-1-oxoisoindolin-5-yl)-3-ethoxy-5-methylbenzamide]: the IC50 lay in the range of 1 to 10 µM.

Consider `Cc1cccc(C(=O)Nc2ccc3c(c2)CN(C2CCC(=O)NC2=O)C3=O)c1` (centres unmarked) [Compound 3, N-(2-(2,6-dioxopiperidin-3-yl)-1-oxoisoindolin-5-yl)-3-methylbenzamide], for which the half-inhibitory concentration (IC50) is 1 to 10 µM.

For the compound `COc1ccccc1C(=O)Nc1ccc2c(c1)CN(C1CCC(=O)NC1=O)C2=O` (centres unmarked) [Compound 34, N-(2-(2,6-dioxopiperidin-3-yl)-1-oxoisoindolin-5-yl)-2-methoxybenzamide], the 50% inhibitory concentration (IC50) lay within 1 to 10 µM.

Turning to `NC1(c2ccc(C(=O)Nc3ccc4c(c3)CN(C3CCC(=O)NC3=O)C4=O)cc2)CCC1` (centres unmarked) [Compound 30, 4-(1-aminocyclobutyl)-N-(2-(2,6-dioxopiperidin-3-yl)-1-oxoisoindolin-5-yl)benzamide], the IC50 fell in the range of 1 to 10 µM.

Take `O=C1CCC(N2Cc3cc(Nc4nc5ccccc5s4)ccc3C2=O)C(=O)N1` (centres unmarked) [Compound 63, 3-(5-(benzo[d]thiazol-2-ylamino)-1-oxoisoindolin-2-yl)piperidine-2,6-dione]: the 50% inhibitory concentration (IC50) is 1 to 10 µM.

Regarding `CC(C)(O)c1ccc(C(=O)Nc2ccc3c(c2)CN(C2CCC(=O)NC2=O)C3=O)cc1` (centres unmarked) [Compound 22, N-(2-(2,6-dioxopiperidin-3-yl)-1-oxoisoindolin-5-yl)-4-(2-hydroxypropan-2-yl)benzamide], the half-maximal inhibitory concentration (IC50) lay within 1 to 10 µM.

Consider `O=C1CCC(N2Cc3cc(NC(=O)c4ccc(Cl)cc4)ccc3C2=O)C(=O)N1` (centres unmarked) [Compound 14, 4-chloro-N-(2-(2,6-dioxopiperidin-3-yl)-1-oxoisoindolin-5-yl)benzamide], for which the concentration for half-maximal inhibition (IC50) was in the range of 1 to 10 µM.

As for `Cc1ccccc1C(=O)Nc1ccc2c(c1)CN(C1CCC(=O)NC1=O)C2=O` (centres unmarked) [Compound 33, N-(2-(2,6-dioxopiperidin-3-yl)-1-oxoisoindolin-5-yl)-2-methylbenzamide], the concentration for half-maximal inhibition (IC50) lay within 1 to 10 µM.

Turning to `Cc1cc(C(=O)Nc2ccc3c(c2)CN(C2CCC(=O)NC2=O)C3=O)ccc1Br` (centres unmarked) [Compound 54, 4-bromo-N-(2-(2,6-dioxopiperidin-3-yl)-1-oxoisoindolin-5-yl)-3-methylbenzamide], the half-inhibitory concentration (IC50) fell in the range of 1 to 10 µM.

As for `Cc1ccc(C(=O)Nc2ccc3c(c2)C(=O)N(C2CCC(=O)NC2=O)C3=O)cc1` (centres unmarked) [Compound 1, N-(2-(2,6-dioxopiperidin-3-yl)-1,3-dioxolsoindolin-5-yl)-4-methylbenzamide], the IC50 was in the range of 1 to 10 µM.

For the compound `O=C1CCC(N2Cc3cc(NC(=O)c4cccc(C(F)(F)F)c4)ccc3C2=O)C(=O)N1` (centres unmarked) [Compound 12, N-(2-(2,6-dioxopiperidin-3-yl)-1-oxoisoindolin-5-yl)-3-(trifluoromethyl)benzamide], the IC50 is under 1 µM.

As to `O=C1CCC(N2Cc3cc(NC(=O)c4ccccc4OC(F)(F)F)ccc3C2=O)C(=O)N1` (centres unmarked) [Compound 45, N-(2-(2,6-dioxopiperidin-3-yl)-1-oxoisoindolin-5-yl)-2-(trifluoromethoxy)benzamide], the concentration for half-maximal inhibition (IC50) fell in the range of 1 to 10 µM.

With `CC(C)c1ccccc1C(=O)Nc1ccc2c(c1)CN(C1CCC(=O)NC1=O)C2=O` (centres unmarked) [Compound 42, N-(2-(2,6-dioxopiperidin-3-yl)-1-oxoisoindolin-5-yl)-2-isopropylbenzamide], the IC50 was 1 to 10 µM.

Consider `O=C1CCC(N2Cc3cc(NC(=O)c4ccccc4C(F)(F)F)ccc3C2=O)C(=O)N1` (centres unmarked) [Compound 10, N-(2-(2,6-dioxopiperidin-3-yl)-1-oxoisoindolin-5-yl)-2-(trifluoromethyl)benzamide], for which the 50% inhibitory concentration (IC50) is under 1 µM.

On to `CC(C)c1cccc(C(=O)Nc2ccc3c(c2)CN(C2CCC(=O)NC2=O)C3=O)c1` (centres unmarked) [Compound 41, N-(2-(2,6-dioxopiperidin-3-yl)-1-oxoisoindolin-5-yl)-3-isopropylbenzamide], for which the IC50 lay within 1 to 10 µM.

Turning to `Cc1ccc(C(=O)Nc2ccc3c(c2)CN(C2CCC(=O)NC2=O)C3=O)cc1` (centres unmarked) [Compound 2, N-(2-(2,6-dioxopiperidin-3-yl)-1-oxoisoindolin-5-yl)-4-methylbenzamide], the half-maximal inhibitory concentration (IC50) was under 1 µM.

Take `COc1cccc(C(=O)Nc2ccc3c(c2)CN(C2CCC(=O)NC2=O)C3=O)c1` (centres unmarked) [Compound 11, N-(2-(2,6-dioxopiperidin-3-yl)-1-oxoisoindolin-5-yl)-3-methoxybenzamide]: the IC50 was under 1 µM.

With `O=C1CCC(N2Cc3cc(NC(=O)c4cccc(F)c4)ccc3C2=O)C(=O)N1` (centres unmarked) [Compound 8, N-(2-(2,6-dioxopiperidin-3-yl)-1-oxoisoindolin-5-yl)-3-fluorobenzamide], the 50% inhibitory concentration (IC50) lay within 1 to 10 µM.

On to `O=C1CCC(N2Cc3cc(NC(=O)COCc4ccccc4)ccc3C2=O)C(=O)N1` (centres unmarked) [Compound 65, 2-(benzyloxy)-N-(2-(2,6-dioxopiperidin-3-yl)-1-oxolsoindolin-5-yl)acetamide], for which the IC50 is under 1 µM.

For the compound `O=C1CCC(N2Cc3cc(NC(=O)c4cccc(C5CC5)c4)ccc3C2=O)C(=O)N1` (centres unmarked) [Compound 50, 3-cyclopropyl-N-(2-(2,6-dioxopiperidin-3-yl)-1-oxoisoindolin-5-yl)benzamide], the IC50 is 1 to 10 µM.

`O=C1CCC(N2Cc3cc(NC(=O)c4ccccc4C4CC4)ccc3C2=O)C(=O)N1` (centres unmarked) [Compound 49, 2-cyclopropyl-N-(2-(2,6-dioxopiperidin-3-yl)-1-oxoisoindolin-5-yl)benzamide]: the 50% inhibitory concentration (IC50) is 1 to 10 µM.

In the case of `Cc1cc(F)cc(C(=O)Nc2ccc3c(c2)CN(C2CCC(=O)NC2=O)C3=O)c1` (centres unmarked) [Compound 55], the IC50 fell in the range of 1 to 10 µM.

Usually IC50 stands for the concentration at which inhibition is half-maximal.
